The record followed here is ChEMBL document CHEMBL1156135 (Bioorg Med Chem Lett, 2009).

One experiment relates to A-375. Description: Antiproliferative activity against human A375 cells expressing b-Raf V600E mutant. Format: functional, cell-based.
Settings: not given
As for `CC(=O)N1C2CCC1CC(c1ccnc3c(-c4cccc5[nH]ncc45)c(-c4ccncc4)nn13)C2` (stereo not given), 2540 nM corresponded to half-maximal inhibition (IC50).

For the compound `CCN1C2CCC1CC(c1ccnc3c(-c4ccc(C)c5[nH]ncc45)c(-c4ccncc4)nn13)C2` (stereo not given), 1600 nM corresponded to half-maximal inhibition (IC50).

On to `CS(=O)(=O)N1C2CCC1CC(c1ccnc3c(-c4cccc5[nH]ncc45)c(-c4ccncc4)nn13)C2` (stereo not given), for which the IC50 worked out at 950 nM. Against the preceding compound, the IC50 is about 1.7-fold lower.

For `CCN1C2CCC1CC(c1ccnc3c(-c4cccc5[nH]ncc45)c(-c4ccncc4)nn13)C2` (stereo not given), half-maximal inhibition (IC50) was put at 2900 nM.

As to `CCN1C2CCC1CC(c1ccnc3c(-c4ccc(Cl)c(O)c4)c(-c4ccncc4)nn13)C2` (stereo not given), the IC50 worked out at 320 nM.

In turn, `CC(=O)N1C2CCC1CC(c1ccnc3c(-c4ccc(Cl)c(O)c4)c(-c4ccncc4)nn13)C2` (stereo not given) gave an IC50 of 900 nM.

In the case of `COc1cc(-c2c(-c3ccncc3)nn3c(C4CC5CCC(C4)N5)ccnc23)ccc1Cl` (stereo not given), half-maximal inhibition (IC50) was put at 2600 nM.

Compound `CN1C2CC(S(=O)(=O)c3ccccc3)C1Cc1cnc3c(-c4ccc(Cl)c(O)c4)c(-c4ccncc4)nn3c12` (stereo not given) yielded an IC50 of 1000 nM. This IC50 is about 2.6-fold lower than that of the compound before.

In the case of `OCCN1C2CCC1CC(c1ccnc3c(-c4cccc5[nH]ncc45)c(-c4ccncc4)nn13)C2` (stereo not given), the midpoint of inhibition, the IC50, lay at 3440 nM.

`COc1cccc(-c2c(-c3ccncc3)nn3c(C4CC5CCC(C4)N5)ccnc23)c1` (stereo not given) returned an IC50 of 6400 nM.

As to `CN1C2CC(CO)C1Cc1cnc3c(-c4ccc(Cl)c(O)c4)c(-c4ccncc4)nn3c12` (stereo not given), the IC50 came to 1700 nM.

As to `CCOC(=O)N1C2CCC1CC(c1ccnc3c(-c4ccc(C)c5[nH]ncc45)c(-c4ccncc4)nn13)C2` (stereo not given), the IC50 was 1000 nM.

Take `CCOC(=O)N1C2CCC1CC(c1ccnc3c(-c4ccc(C)c(O)c4)c(-c4ccncc4)nn13)C2` (stereo not given): the IC50 was 570 nM. Compared with the last compound, the IC50 is about 1.8-fold lower.

Test system in the next experiment: not listed separately
Description: Antiproliferative activity against human WM266.4 cells expressing b-Raf V600E mutant. Format: functional, cell-based. To be noted: WM 266-4.
`CCOC(=O)N1C2CCC1CC(c1ccnc3c(-c4ccc(Cl)c(OC)c4)c(-c4ccncc4)nn13)C2` (stereo not given): the IC50 was greater than 10000 nM.

Regarding `CCOC(=O)N1C2CCC1CC(c1ccnc3c(-c4cccc(O)c4)c(-c4ccncc4)nn13)C2` (stereo not given), the IC50 was 240 nM.

For `CCOC(=O)N1C2CCC1CC(c1ccnc3c(-c4ccc(Cl)c(O)c4)c(-c4ccncc4)nn13)C2` (stereo not given), the 50% inhibitory concentration (IC50) stood at 120 nM.

The compound `CC(=O)N1C2CCC1CC(c1ccnc3c(-c4cccc5[nH]ncc45)c(-c4ccncc4)nn13)C2` (stereo not given) showed an IC50 of 1800 nM. Compared with the last compound, the IC50 is about 15-fold higher.

In turn, `CCN1C2CCC1CC(c1ccnc3c(-c4ccc(C)c5[nH]ncc45)c(-c4ccncc4)nn13)C2` (stereo not given) had an IC50 of 840 nM.

Compound `CS(=O)(=O)N1C2CCC1CC(c1ccnc3c(-c4cccc5[nH]ncc45)c(-c4ccncc4)nn13)C2` (stereo not given) registered an IC50 of 570 nM.

`CCN1C2CCC1CC(c1ccnc3c(-c4cccc5[nH]ncc45)c(-c4ccncc4)nn13)C2` (stereo not given) had a concentration for half-maximal inhibition (IC50) of 2400 nM.

For the compound `CCN1C2CCC1CC(c1ccnc3c(-c4ccc(Cl)c(O)c4)c(-c4ccncc4)nn13)C2` (stereo not given), the IC50 is 230 nM.

In turn, `CC(=O)N1C2CCC1CC(c1ccnc3c(-c4ccc(Cl)c(O)c4)c(-c4ccncc4)nn13)C2` (stereo not given) had an IC50 of 260 nM.

In turn, `COc1cc(-c2c(-c3ccncc3)nn3c(C4CC5CCC(C4)N5)ccnc23)ccc1Cl` (stereo not given) gave an IC50 of 3500 nM.

Regarding `CN1C2CC(S(=O)(=O)c3ccccc3)C1Cc1cnc3c(-c4ccc(Cl)c(O)c4)c(-c4ccncc4)nn3c12` (stereo not given), half-maximal inhibition (IC50) required 600 nM.

For `OCCN1C2CCC1CC(c1ccnc3c(-c4cccc5[nH]ncc45)c(-c4ccncc4)nn13)C2` (stereo not given), it took 1370 nM to reach half-maximal inhibition (IC50).

In turn, `COc1cccc(-c2c(-c3ccncc3)nn3c(C4CC5CCC(C4)N5)ccnc23)c1` (stereo not given) displayed an IC50 of 8400 nM.

Compound `CN1C2CC(CO)C1Cc1cnc3c(-c4ccc(Cl)c(O)c4)c(-c4ccncc4)nn3c12` (stereo not given) gave an IC50 of 750 nM. Against the preceding compound, the IC50 is about 11-fold lower.

Compound `CCOC(=O)N1C2CCC1CC(c1ccnc3c(-c4ccc(C)c5[nH]ncc45)c(-c4ccncc4)nn13)C2` (stereo not given) returned an IC50 of 670 nM.

With `CCOC(=O)N1C2CCC1CC(c1ccnc3c(-c4ccc(C)c(O)c4)c(-c4ccncc4)nn13)C2` (stereo not given), the IC50 amounted to 230 nM. This IC50 lies about 2.9-fold lower than the previous one.

The target of a further experiment is Serine/threonine-protein kinase B-raf (Homo sapiens, UniProt P15056). Kind of experiment: Inhibition of B-Raf.
Serine/threonine-protein kinase B-raf, sequence (P15056 whole entry): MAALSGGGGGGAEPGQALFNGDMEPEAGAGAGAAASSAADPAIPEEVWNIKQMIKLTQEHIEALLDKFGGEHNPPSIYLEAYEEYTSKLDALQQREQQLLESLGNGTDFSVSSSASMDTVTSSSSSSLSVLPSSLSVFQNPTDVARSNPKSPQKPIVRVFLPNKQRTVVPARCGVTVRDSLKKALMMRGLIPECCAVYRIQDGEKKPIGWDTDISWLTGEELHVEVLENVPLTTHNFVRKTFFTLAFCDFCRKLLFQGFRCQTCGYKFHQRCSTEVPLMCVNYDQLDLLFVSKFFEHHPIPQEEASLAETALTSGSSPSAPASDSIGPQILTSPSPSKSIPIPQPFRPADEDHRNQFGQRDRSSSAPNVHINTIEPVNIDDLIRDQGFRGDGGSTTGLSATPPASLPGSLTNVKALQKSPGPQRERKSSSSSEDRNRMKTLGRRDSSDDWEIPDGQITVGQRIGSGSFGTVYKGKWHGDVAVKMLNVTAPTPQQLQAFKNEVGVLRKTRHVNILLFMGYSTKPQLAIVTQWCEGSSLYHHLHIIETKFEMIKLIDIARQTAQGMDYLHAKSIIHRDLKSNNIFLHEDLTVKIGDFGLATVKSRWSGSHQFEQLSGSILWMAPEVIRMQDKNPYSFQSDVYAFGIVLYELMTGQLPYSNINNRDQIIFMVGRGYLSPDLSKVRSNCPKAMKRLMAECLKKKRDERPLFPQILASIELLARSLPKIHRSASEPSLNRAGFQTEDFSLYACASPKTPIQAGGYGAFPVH
Settings: not given
As for `CCOC(=O)N1C2CCC1CC(c1ccnc3c(-c4cccc5[nH]ccc45)c(-c4ccncc4)nn13)C2` (stereo not given), the IC50 was greater than 1000 nM.

For the compound `CCOC(=O)N1C2CCC1CC(c1ccnc3c(-c4ccc5c(c4)NC(=O)C5)c(-c4ccncc4)nn13)C2` (stereo not given), the IC50 is greater than 1000 nM.

In the case of `CCOC(=O)N1C2CCC1CC(c1ccnc3c(-c4ccc(F)c(F)c4)c(-c4ccncc4)nn13)C2` (stereo not given), 302 nM corresponded to half-maximal inhibition (IC50).

Compound `CCOC(=O)N1C2CCC1CC(c1ccnc3c(-c4ccc(Cl)c(O)c4)c(-c4ccncc4)nn13)C2` (stereo not given) showed an IC50 of less than 2 nM.

`CCOC(=O)N1C2CCC1CC(c1ccnc3c(-c4ccc(-c5nnco5)cc4)c(-c4ccncc4)nn13)C2` (stereo not given) displayed an IC50 of 151 nM. This counts as sub-micromolar.

The compound `CCN1C2CCC1CC(c1ccnc3c(-c4cccc5[nH]ncc45)c(-c4ccncc4)nn13)C2` (stereo not given) registered an IC50 of 46.6 nM.

`CCN1C2CCC1CC(c1ccnc3c(-c4ccc(Cl)c(O)c4)c(-c4ccncc4)nn13)C2` (stereo not given) yielded an IC50 of 0.5 nM.

With `CCOC(=O)N1C2CCC1CC(c1ccnc3c(-c4cccc5[nH]c(=O)[nH]c45)c(-c4ccncc4)nn13)C2` (stereo not given), the IC50 is greater than 1000 nM.

As for `COc1cc(-c2c(-c3ccncc3)nn3c(C4CC5CCC(C4)N5)ccnc23)ccc1Cl` (stereo not given), the IC50 turned out to be 8.5 nM.

Compound `CN1C2CC(S(=O)(=O)c3ccccc3)C1Cc1cnc3c(-c4ccc(Cl)c(O)c4)c(-c4ccncc4)nn3c12` (stereo not given) gave an IC50 of 0.8 nM. Compared with the last compound, the IC50 is about 11-fold lower.

Consider `CN1C2CC(CO)C1Cc1cnc3c(-c4ccc(Cl)c(O)c4)c(-c4ccncc4)nn3c12` (stereo not given), for which the IC50 is 0.6 nM. This IC50 and that of the compound before are within 1.5-fold of each other.
